# Laboratory results: patent publication US6042841A, “Cosmetic method of treating skin” (Unilever Home & Personal Care USA Division of Conopco, Inc., priority 1998, dated 2000)
# How the values were obtained:
# Type in all cases: cell-based
# decorin = assay: Dot blot assay for decorin synthesis in human dermal fibroblasts
# Method: (§1) Primary human foreskin fibroblasts at passage 2 (P2) were seeded into 12-well plates at 10000 cells/cm^2 and maintained for 24 hours in an atmosphere of 5% carbon dioxide and 4% oxygen in Dulbeccos Modified Eagles Medium (DMEM) supplemented with 10% foetal calf serum. After this time the cells were washed with serum free DMEM and then incubated in fresh serum free DMEM for a further 60 hours. The fibroblast monolayers were then washed again with serum free DMEM. Test reagents and vehicle controls were added to the cells in triplicate in a final volume of 0.4 ml/well fresh serum free DMEM and incubated for a further 24 hours. This fibroblast conditioned medium was either analysed immediately or snap frozen in liquid nitrogen and stored at -70° C. for future analysis. The cells were then counted and data from the dot-blot analysis subsequently standardised to cell number.
# Samples of conditioned medium from dermal fibroblasts treated with vehicle (as a control) or test reagents were supplemented with 20 mM dithiothreitol (1:10 dilution of 200 mM stock solution) and 0.1% sodium dodecylsulphate (1:100 dilution of 10% stock solution), mixed well and then incubated at 75° C. for 2 minutes. A standard for the assay was generated by serial dilution of neat fibroblast conditioned medium from fibroblasts seeded at 10000 cells/cm^2 in a 175 cm^2 flask and maintained in serum free DMEM as described above. Assay samples were subsequently applied in triplicate to a prewetted sheet of Immobilon-P transfer membrane using the 96-well Bio-Dot Apparatus from Bio-Rad as described in the manufacturers guidelines. Approximately 200 μl of medium was applied per well. […] Dot intensity was assessed by computer-assisted image analysis using the quantification tools in ImageQuant™, standardised to cell number and the effects of various test reagents on decorin and procollagen-I synthesis were determined relative to a vehicle treated control value of 100 arbitrary units.
# procollagen-I = assay: Dot blot assay for procollagen-I synthesis in human dermal fibroblasts
# Method: as §1
# Samples of conditioned medium from dermal fibroblasts treated with vehicle (as a control) or test reagents were supplemented with 20 mM dithiothreitol (1:10 dilution of 200 mM stock solution) and 0.1% sodium dodecylsulphate (1:100 dilution of 10% stock solution), mixed well and then incubated at 75° C. for 2 minutes. […]
# In order to normalise the results the effects of the test substance was determined relative to a vehicle treated control value of 100 arbitrary units. […]
# PGE2 = assay: Prostaglandin E2 assay, PMA-induced PGE2 production in human skin fibroblasts; details: for PGE2: N 4, p < 0.001 vs PMA-treated
# Method: Intracellular adhesion molecules (ICAM) and PEG2 production by human skin fibroblasts can be induced by the inflammatory stimulus PMA (phorbal myristate acetate). PMA represents an external stressor which induces oxidative stress and inflammatory responses in cells. This model is used to model inflammation in vivo.
# Primary human foreskin fibroblasts at passage 2 (P2) were seeded into 96-well plates at 10000 cells/well and maintained for 24 hours in an atmosphere of 5% carbon dioxide in Dulbeccos Modified Eagles Medium (DMEM) supplemented with 10% foetal calf serum. […] Phorbal myristate acetate (PMA) (Sigma) was added to the media and the cells incubated for a further 24 hours. […] The fibroblasts/media were then analysed as described below immediately or snap frozen in liquid nitrogen and stored at -70° C. for future analysis. The cells were then counted and data from the dot-blot analysis subsequently standardised to cell number.
# Prostaglandin E2 (PGE2) assay: Volumes of 50 μl culture medium were taken for PGE2 assay after gently shaking the culture plate. PGE2 levels in the medium were determined with a Biotrak PGE2 immunoassay kit (Amersham, UK). The assay is based on the competition between unlabelled PGE2 in the sample and a fixed quantity of horseradish peroxidase labelled PGE2 for a limited amount of fixed PGE2 specific antibody. Concentrations of unlabelled sample PGE2 are determined according to a standard curve which was obtained at the same time.
compound,measurement,setting,value
"CCCCCCCCCCC/C=C\CCCCC(=O)O [Petroselinic Acid, petroselinic acid]",decorin synthesis (in words),decorin; compared to the control,significantly upregulates
same,magnitude of upregulation of decorin synthesis vs retinoic acid (in words),decorin; petroselinic acid 10 μM vs retinoic acid 1 μm (so in the source),"exceeds that of the bench-mark anti-aging dermal repair active, retinoic acid"
same,activity at 10 µM,"procollagen-I; Homo sapiens, Fibroblast, 10 μM, 24 hours, n = 3, read-out: Procollagen-I synthesis relative to vehicle treated control value of 100",118 ± 8.6%
same,procollagen-I synthesis (in words),procollagen-I; compared to the control,significantly upregulates
same,PGE2,PGE2; PMA + PA (0.1 uM),500 ± 127 pg/mL
same,PGE2,PGE2; PMA + PA (1 uM),486 ± 93 pg/mL
same,PGE2,PGE2; PMA + PA (10 uM),233 ± 139 pg/mL
same,PGE2,PGE2; PMA + PA (100 uM),117 ± 39 pg/mL
same,inflammatory response as measured by PGE2 production (in words),"PGE2; PMA-challenged, even at 0.1 μm (so in the source)",dramatically reduces the inflammatory response
